# Data published in US5990137A, “Method of inhibiting NADPH oxidase” (Idun Pharmaceuticals, Inc., priority 1998, dated 1999).
# What was measured:
# [1] = biological target: T1, Xanthine oxidase (Bos taurus, UniProt P80457); assay: Xanthine oxidase assay (superoxide by hypoxanthine/xanthine oxidase, Lucigenin); format: biochemical; settings: hypoxanthine 150 μM, buttermilk xanthine oxidase, 37° C.; for IC50: read-out: Xanthine Oxidase Inhibition IC50 (Integral)
# T1 construct: purchased Sigma x-1875; host or cells: buttermilk
# [2] = tested on: isolated neutrophils (opsonized zymosan-stimulated oxidative burst); assay: Measurement of chemiluminescence of isolated neutrophils (neutrophil burst, Lucigenin); format: cell-based; settings: for inhibition at 50 µM / IC50: Neutrophil; for inhibition at 50 µM: percent inhibition at 50 μM, single concentration, read-out: Neutrophil Burst Screen Value (% @ 50 μM); for Neutrophil Burst IC50 (Lucigenin) / IC50: opsonized zymosan, 37° C., 14 min, lucigenin
# Method: Whole blood (150 ml) was anticoagulated with Acid Citrate Dextrose (ACD) using a ratio of 1:5 ACD to blood.
# All steps are to be performed using polypropylene plastic ware.
# a. Whole blood (60 ml) was added to each of three 100 ml polypropylene graduated cylinders containing 30 ml of […]. The cylinders were covered securely with Parafilm. The blood was allowed to sediment for approximately 1 hour at room temperature.
# b. The turbid straw-colored layer was harvested from the top of the cylinders into 50 ml conical polypropylene tubes. The white blood cells were pelleted by centrifugation at 240×g (Sorvall at 1200 rpm) for 12 min. at 4° C. with the brake on low.
# c. The supernatant was removed by aspiration and the pooled pellet resuspended in 4-50 ml cold PBS (w/o Ca, Mg). It was then centrifuged at 240×g (Sorvall at 1200 rpm) for 6 min. at 4° C. with the brake on high.
# a. The supernatant was aspirated and the pellet resuspended in 12 ml of cold cell culture-grade water. The pellet was titrated gently with a pipet for exactly 30 seconds then 4 ml of cold 0.6 M KCl was added. It was then QSed to 50 ml with cold PBS (w/o Ca, Mg) and centrifuged at 300×g (Sorvall TY 6000D at 1400 rpm) for 6 min. at 4° C. with the brake on high.
# b. Step 2.a. was repeated once more.
# a. The supernatant was aspirated and the cells were resuspended in 2.5 ml cold PBS (w/o Ca, Mg). The cell suspension was carefully layered over 3 ml Ficoll-Hypaque in a 15 ml polypropylene conical tube. It was then centrifuged at 400×g (Sorvall at 1900 rpm) for 30 min. at 4° C. with the brake on low.
# b. Aspiration occurred down to the neutrophil pellet. The pellet was resuspended fin cold PBS (w/o Ca, Mg) and transferred to a 50 ml conical tube. It was then QSed to 50 ml with cold PBS (w/o Ca, Mg) and centrifuged at 300×g (Sorvall at 1400 rpm) for 6 min. at 4° C. with the brake on high.
# d. The supernatant was aspirated and the pellet resuspended in 50 ml cold PBS (w/o Ca, Mg) and centrifuged at 300×g (Sorvall at 1400 rpm) for 6 min. with the brake on high.
# e. The supernatant was aspirated and the neutrophil pellet resuspended in 4.0 ml cold PBS (w/o Ca, Mg). It was kept on ice. Trypan blue (10 μl) was diluted (1:40) and the cells were counted using a hemacytometer. The cell number and viability by Trypan […] exclusion were determined and the results recorded. The cells were diluted to 5.0×10^6 cells/ml with cold PBS-G (with Ca, Mg) prior to plating for the assay.
# 2. […] The suspension was centrifuged and the particles resuspended in 7 ml of PBS-G (with Ca, Mg)(18 mg/ml). It was stored on ice until used (briefly vortexed prior to pipetting).
# 4. PBS-G (10 μl) (with Ca, Mg) was added to the wells in a white 96 well plate.
# 6. The compound dilutions (10 μl) were added to the appropriate wells.
# 7. The cell prep was diluted to 5.0×10^6 cells/ml with PBS-G (with Ca, Mg) in a separate multipipette trough.
# 8. The neutrophil suspension (20 μl) was added to the appropriate wells.
# 9. The plate was incubated at 37° C. for three minutes.
# 10. Zymosan (10 μl of 18 mg/ml) was added to the appropriate wells.
# 11. The plate was read on the luminometer (Labsystems Luminoskan, Needham Heights, Mass.) for 14 min. at 37° C. on the kinetic mode and the results recorded using the software DeltaSoft.
# 12. The plate data was exported into Excel to determine percent of control and derive the means and standard deviations for the data. The IC50 was determined graphically from the data and plotted using SigmaPlot. For cases where one concentration (50 μM) was tested, percent inhibition was compared to that seen with 50 μM apocynin.
# 13. The results are set forth below in Table 1 as "Neutrophil Burst IC50 (Lucigenin)". The results for 50 μM inhibition in the single assay are reported as "Neutrophil Burst Screen Value (% @ 50 μM)".
# [3] = tested on: Jurkat cells; assay: Cytotoxicity assay employing Jurkat cells (MTT); format: cell-based; settings: Jurkat clone E6-1, MTT, 37° C. overnight
# Method: This Assay was performed as set forth in Hansen et al., Journal of Immunological Methods, 119:203-210 (19930; Mosmann, Journal of Immunological Methods, 65:55-63 (1983); and Slater et al., Biochem. Ciophys. Acta, 77:383 (1963); except as noted below.
# Compounds from the following Examples were tested for cytotoxicity using MTT (i.e., 3-[4,5-Dimethylthiazol-2-yl]-2,5-diphenyltetrazolium bromide; Thiazolyl Blue (Sigma, St. Louis, Mo.)).
# MTT was dissolved in basal culture media at a concentration of 5 mg/ml. If necessary, it was briefly warmed at 37° C. to fully dissolve, passed through a sterile filter, and aliquoted and stored at -20° C. until use.
# The Extraction Buffer used was a solution composed of 20% SDS, 2.5% Acetic Acid (80% 6 stock solution), 2.5% 1N Hcl, 50% Dimethylformamide/50% dissolved in distilled water, SDS was dissolved into buffer components with gentle heating and stirring and the resultant solution was filtered and stored until use.
# The MTT solution was added in an amount equal to 10% of the culture volume to each well in a 96-well plate containing 100,000 Jurkat cells/well.
# The wells were then incubated for 0.5 to 2 hours in standard culture conditions. A volume of extraction buffer equal to the culture volume was added. The 96-well plate was then sealed. The formazan crystals were allowed to extract at 37° C. for four hours. The plate was read on a spectrophotometer [Spectramax 250, Molecular Devices, Sunnyvale, Calif.] at an absorbance wavelength of 560 nm. (The background absorbance measured at 650 nm was subtracted from the value measured at 560 nm.)
# The Jurkat cells (Jurkat clone E6-1) were grown using standard conditions supplied by ATCC (American Type Culture Collection--Rockville, Md.).
# The compounds diluted in medium (RPMI 1640 plus 10% fetal bovine serum) stock solution of 100 μM, then this stock solution was further diluted 3-fold before testing in the instant assay.
# 2-Hydroxy-3-methoxy-E-nitrostyrene tested at 100 μM as death control cells, incubated under the above conditions at 37° C. overnight.
# The Extraction Buffer (100 μl) was added to each well and the resultant suspension was incubated 4 hours at 37° C.
# The results from this procedure are set forth above in Table 1 in the column marked "Cytotox (MTT/Jurkat)". […] Toxicity was rated "3" if dead cells and >50% reduction in MTT absorbance at 1 μM test compound.
# T1 sequence (P80457 whole entry): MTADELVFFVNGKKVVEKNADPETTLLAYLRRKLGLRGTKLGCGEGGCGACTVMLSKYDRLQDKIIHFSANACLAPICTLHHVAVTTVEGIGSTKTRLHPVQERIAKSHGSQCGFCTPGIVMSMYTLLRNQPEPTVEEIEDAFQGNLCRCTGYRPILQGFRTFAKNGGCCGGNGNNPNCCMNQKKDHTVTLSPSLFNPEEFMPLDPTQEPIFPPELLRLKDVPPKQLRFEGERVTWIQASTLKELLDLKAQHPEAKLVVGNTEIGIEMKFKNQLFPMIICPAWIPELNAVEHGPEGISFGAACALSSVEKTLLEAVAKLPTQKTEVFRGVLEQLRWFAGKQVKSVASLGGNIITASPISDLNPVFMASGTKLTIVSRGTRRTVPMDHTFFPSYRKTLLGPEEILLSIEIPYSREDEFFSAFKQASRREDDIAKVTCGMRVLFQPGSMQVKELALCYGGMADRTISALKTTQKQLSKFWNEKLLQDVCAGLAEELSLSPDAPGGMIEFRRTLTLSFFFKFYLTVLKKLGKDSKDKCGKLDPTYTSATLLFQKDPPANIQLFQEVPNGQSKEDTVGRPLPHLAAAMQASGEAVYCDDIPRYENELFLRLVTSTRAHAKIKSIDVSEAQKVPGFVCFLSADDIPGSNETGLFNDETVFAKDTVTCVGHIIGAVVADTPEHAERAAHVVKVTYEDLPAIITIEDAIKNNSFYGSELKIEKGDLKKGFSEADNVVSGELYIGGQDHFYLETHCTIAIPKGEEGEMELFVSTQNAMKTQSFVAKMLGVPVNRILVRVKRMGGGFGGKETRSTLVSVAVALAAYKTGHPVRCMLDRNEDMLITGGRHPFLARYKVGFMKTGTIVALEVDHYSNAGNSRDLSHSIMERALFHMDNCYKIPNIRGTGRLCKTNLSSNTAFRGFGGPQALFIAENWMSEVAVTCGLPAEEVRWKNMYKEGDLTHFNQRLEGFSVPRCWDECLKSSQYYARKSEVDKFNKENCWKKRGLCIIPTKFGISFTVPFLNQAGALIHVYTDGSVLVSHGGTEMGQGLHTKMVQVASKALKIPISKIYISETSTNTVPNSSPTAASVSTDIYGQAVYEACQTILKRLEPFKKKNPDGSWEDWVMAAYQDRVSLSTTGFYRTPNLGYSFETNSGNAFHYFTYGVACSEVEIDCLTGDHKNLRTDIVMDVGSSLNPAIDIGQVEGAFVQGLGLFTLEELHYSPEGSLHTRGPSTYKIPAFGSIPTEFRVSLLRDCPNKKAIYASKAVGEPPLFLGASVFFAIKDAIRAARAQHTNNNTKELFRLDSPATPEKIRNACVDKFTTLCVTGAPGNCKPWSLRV
SMILES,Xanthine Oxidase Inhibition IC50 (Integral) [1],Neutrophil Burst IC50 (Lucigenin) [2],Cytotox (MTT/Jurkat) [3],IC50 [1] [µM],IC50 [2] [µM],further results
"COc1cccc(/C=N/N=C/c2cccc(OC)c2O)c1O [A, Bis[3-methoxy-2-hydroxybenzaldehyde]trans,trans-azine]",No Effect,No Effect,0,,,inhibition at 50 µM [2]: 1.1%
"COc1cc(C=Nc2nccs2)ccc1O [B, 2-N'-(3-methoxy-4-hydroxybenzylidene)-2-amino-1,3-thiazole]",,,,,,inhibition at 50 µM [2]: 49.4%
"COc1cc(/C=N/N=C/c2cc(OC)c(O)c(OC)c2)cc(OC)c1O [D, Bis[4-hydroxy-3,5-dimethoxybenzaldehyde]-trans,trans-azine]",,,1 (dead cells and >50% reduction in MTT absorbance were observed at 100 μM of the test compound),70,,
"COc1cc(/C=N/N=C/c2cc(Br)c(O)c(OC)c2)cc(Br)c1O [Example 1, Bis[3-Bromo-4-Hydroxy-5-Methoxybenzaldehyde]trans,trans-Azine]",,,0,,38,
"COc1cccc(/C=N/N=C/c2cccc(OC)c2OC)c1OC [Example 2, Bis[2,3-Dimethoxybenzaldehyde]trans,trans-Azine]",No Effect,No Effect,,,,
"COc1ccc(/C=N/N=C/c2ccc(OC)cc2O)c(O)c1 [Example 3, Bis[2-Hydroxy-4-Methoxybenzaldehyde]trans,trans-Azine]",No Effect,No Effect,,,,
"COc1ccc(/C=N/N=C/c2ccc(OC)c(O)c2)cc1O [Example 4, Bis[3-Hydroxy-4-Methoxybenzaldehyde]trans,trans-Azine]",No Effect,No Effect,,,,
"COc1ccc(/C=N/N=C/c2ccc(OC)c(OC)c2)cc1OC [Example 5, Bis[3,4-Dimethoxybenzaldehyde]trans,trans-Azine]",No Effect,No Effect,,,,
"Oc1ccc(/C=N/N=C/c2ccc(O)cc2)cc1 [Example 6, Bis[4-Hydroxybenzaldehyde]trans,trans-Azine]",No Effect,,0,,13.5,
"COc1cc(/C(C)=N/N=C(\C)c2ccc(O)c(OC)c2)ccc1O [Example 7, Bis[4-Hydroxy-3-Methoxyacetophenone]trans,trans-Azine]",No Effect,,1 (dead cells and >50% reduction in MTT absorbance were observed at 100 μM of the test compound),,33.1,
"CCOc1cc(/C=N/N=C/c2ccc(O)c(OCC)c2)ccc1O [Example 8, Bis[3-Ethoxy-4-Hydroxybenzaldehyde]trans,trans-Azine]",,No Effect,,,,
"COc1cc(/C(C)=N/N=C(\C)c2cc(OC)c(O)c(OC)c2)cc(OC)c1O [Example 9, Bis[3,5-Dimethoxy-4-Hydroxyacetophenone]trans,trans-Azine]",,,,20,8.7,
"COc1cc(/C=N/N=C/c2ccc(O)cc2)ccc1O [Example 10, N-[4-Hydroxy-3-Methoxybenzaldehyde]-N'-[4-Hydroxybenzaldehyde]trans,trans-Azine]",No Effect,,0,,8.5,
"COc1cccc(/C=N/N=C/c2cccc(OC)c2)c1 [Example 11, Bis[3-Methoxybenzaldehyde]trans,trans-Azine]",No Effect,,,,,
"CC(C)(C)c1cc(/C=N/N=C/c2cc(C(C)(C)C)c(O)c(C(C)(C)C)c2)cc(C(C)(C)C)c1O [Example 14, Bis[3,5-(tert-Butyl)-4-Hydroxybenzaldehyde]trans,trans-Azine]",No Effect,No Effect,,,,
"C(=N\N=C\c1ccncc1)/c1ccncc1 [Example 15, Bis[Pyridine-4-Carboxaldehyde]trans,trans-Azine]",No Effect,No Effect,,,,
"COc1ccc(N=Cc2cc(C(C)(C)C)c(O)c(C(C)(C)C)c2)cc1 [Example 16, N-(3,5-di(tert-Butyl)-4-Hydroxybenzylidene)-p-Methoxyaniline]",No Effect,,0,,,
"COc1cc(C=Nc2ccc(F)cc2)cc(OC)c1O [Example 19, N-(3,5-Dimethoxy-4-Hydroxybenzylidene)-p-Fluoroaniline]",,,,28,13.2,
"COc1cc(C=Nc2ccc(Br)cc2)cc(OC)c1O [Example 20, N-(3,5-Dimethoxy-4-Hydroxybenzylidene)-p-Bromoaniline]",,,,34,9.9,
"COc1cc(C=Nc2nncs2)cc(OC)c1O [Example 21, R-N'-(3,5-Dimethoxy-4-Hydroxybenzylidene)-5-Amino-1,3,4-Thiadiazole]",,,,2.1,8,
"COc1cc(C=Nc2nncs2)ccc1O [Example 22, 5-N'-(3-Methoxy-4-Hydroxybenzylidene)-5-Amino-1,3,4-Thiadiazole]",,,,16.3,15.5,
"COc1cc(C=Nc2ccccc2)cc(OC)c1O [Example 23, N-(3,5-Dimethoxy-4-Hydroxybenzylidene)Aniline]",,,,14,5,
